Experimental data published in patent publication US9085550B2, “Ligands for estrogen related receptors and methods for synthesis of said ligands” (CITY OF HOPE, priority 2005, dated 2015).

How the values were obtained:
[1] = target: T1, HRHN-GAL (yeast GAL4 DNA binding domain without receptor sequences) (Saccharomyces cerevisiae, UniProt P04386); assay: GAL4 reporter transactivation assay in CV-1 cells, control vector without receptor; format: cell-based, monkey
T1 construct: expressed in transfected cells; host or cells: CV-1

[2] = target: T2, GAL-hERRa (human ERRα ligand binding domain fused to GAL4 DNA binding domain) (Homo sapiens, UniProt P11474); assay: GAL4 reporter transactivation assay in CV-1 cells, GAL-hERRa; format: cell-based
T2 construct: expressed in transfected cells; host or cells: CV-1
T2 sequence (P11474 193-421 limits assumed): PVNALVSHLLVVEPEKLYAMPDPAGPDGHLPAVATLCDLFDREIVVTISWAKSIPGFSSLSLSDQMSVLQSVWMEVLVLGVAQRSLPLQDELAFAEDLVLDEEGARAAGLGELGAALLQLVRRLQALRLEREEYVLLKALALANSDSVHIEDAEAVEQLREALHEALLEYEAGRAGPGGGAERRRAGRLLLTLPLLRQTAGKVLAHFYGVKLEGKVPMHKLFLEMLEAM

[3] = target: T3, GAL-L-hERRb (human ERRβ ligand binding domain fused to GAL4 DNA binding domain) (Homo sapiens, UniProt O95718); assay: GAL4 reporter transactivation assay in CV-1 cells, GAL-L-hERRb; format: cell-based
T3 construct: expressed in transfected cells; host or cells: CV-1
T3 sequence (O95718 208-432 limits assumed): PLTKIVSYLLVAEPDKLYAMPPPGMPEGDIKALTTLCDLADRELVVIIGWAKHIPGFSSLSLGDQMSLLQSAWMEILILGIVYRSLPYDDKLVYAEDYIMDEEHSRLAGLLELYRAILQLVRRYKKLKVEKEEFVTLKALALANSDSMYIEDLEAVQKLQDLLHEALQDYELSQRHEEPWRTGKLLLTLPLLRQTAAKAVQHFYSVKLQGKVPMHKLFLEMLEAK

[4] = target: T4, GAL-mERRg (mouse ERRγ ligand binding domain fused to GAL4 DNA binding domain) (Mus musculus, UniProt P62509); assay: GAL4 reporter transactivation assay in CV-1 cells, GAL-mERRg; format: cell-based
T4 construct: expressed in transfected cells; host or cells: CV-1
T4 sequence (P62509 233-457 limits assumed): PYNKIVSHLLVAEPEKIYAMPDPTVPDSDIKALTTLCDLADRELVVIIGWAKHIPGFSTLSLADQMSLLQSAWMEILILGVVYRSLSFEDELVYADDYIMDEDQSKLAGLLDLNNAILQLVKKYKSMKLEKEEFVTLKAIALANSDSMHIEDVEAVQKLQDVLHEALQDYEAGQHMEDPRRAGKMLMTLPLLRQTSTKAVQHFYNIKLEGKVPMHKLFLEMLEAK

human ERα = target: T5, human ERα (Homo sapiens, UniProt P03372); assay: ERE-TK-luc reporter transactivation assay in CV-1 cells, full-length hERa; format: cell-based
T5 construct: Human ERα and ERβ were examined as full-length proteins using an estrogen receptor responsive reporter construct; expressed in transfected cells; host or cells: CV-1
T5 sequence (P03372 1-595): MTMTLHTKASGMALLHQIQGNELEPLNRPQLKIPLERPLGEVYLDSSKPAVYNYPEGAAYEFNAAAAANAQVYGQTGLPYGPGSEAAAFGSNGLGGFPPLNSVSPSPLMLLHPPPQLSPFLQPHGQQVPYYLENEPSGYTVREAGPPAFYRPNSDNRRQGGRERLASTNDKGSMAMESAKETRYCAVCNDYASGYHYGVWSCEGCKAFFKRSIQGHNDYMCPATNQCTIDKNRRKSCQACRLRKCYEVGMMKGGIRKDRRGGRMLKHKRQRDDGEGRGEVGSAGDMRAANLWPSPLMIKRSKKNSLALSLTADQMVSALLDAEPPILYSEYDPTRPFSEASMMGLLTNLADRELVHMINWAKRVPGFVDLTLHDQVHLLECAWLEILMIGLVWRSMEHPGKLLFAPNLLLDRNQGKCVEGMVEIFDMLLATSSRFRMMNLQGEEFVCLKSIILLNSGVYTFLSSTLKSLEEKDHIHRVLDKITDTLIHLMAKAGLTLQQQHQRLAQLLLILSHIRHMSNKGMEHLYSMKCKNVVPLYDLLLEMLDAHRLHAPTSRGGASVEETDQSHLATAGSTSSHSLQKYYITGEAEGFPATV
Experimental: (§1) Human ERα and ERβ were examined as full-length proteins using an estrogen receptor responsive reporter construct.
(§2) Suitable reporter gene constructs are well known to skilled workers in the fields of biochemistry and molecular biology. […] Other vectors known in the art can be used in the methods of the present invention.
(§3) CV-1 cells for the activation assays were grown in Dulbecco's modified Eagle's medium supplemented with 10% resin charcoal-stripped fetal bovine serum, 50 U/ml penicillin G and 50 μg/ml streptomycin sulfate (DMEM-FBS) at 37° C. in 5% CO2. One day prior to transfection, cells were plated to 50-80% confluence using phenol red free DMEM-FBS.

human ERβ = target: T6, human ERβ (Homo sapiens, UniProt Q92731); assay: ERE-TK-luc reporter transactivation assay in CV-1 cells, full-length hERb; format: cell-based
T6 construct: Human ERα and ERβ were examined as full-length proteins using an estrogen receptor responsive reporter construct; expressed in transfected cells; host or cells: CV-1
Experimental: as §1, §2, §3

ERRγ = target: T7, ERRγ (Homo sapiens, UniProt P62508); conditions: background statement; cited from earlier work
T7 sequence (P62508 1-458): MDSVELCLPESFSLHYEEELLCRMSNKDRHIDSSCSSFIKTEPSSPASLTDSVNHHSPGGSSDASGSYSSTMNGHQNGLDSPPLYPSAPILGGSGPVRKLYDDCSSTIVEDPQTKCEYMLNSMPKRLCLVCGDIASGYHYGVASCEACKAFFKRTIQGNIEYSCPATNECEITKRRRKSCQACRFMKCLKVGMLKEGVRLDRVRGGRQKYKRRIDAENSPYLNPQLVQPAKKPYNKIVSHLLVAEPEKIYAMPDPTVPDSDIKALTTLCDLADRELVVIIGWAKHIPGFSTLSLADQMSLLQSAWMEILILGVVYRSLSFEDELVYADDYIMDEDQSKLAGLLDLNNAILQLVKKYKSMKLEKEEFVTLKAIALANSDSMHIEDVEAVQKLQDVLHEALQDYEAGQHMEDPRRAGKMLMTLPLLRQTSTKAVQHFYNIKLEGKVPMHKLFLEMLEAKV

[5] = CV-1, reporter 0.42:vector 0.00875:PGC-1a 0.035, 30 μM
[6] = CV-1, reporter 0.42:vector 0.00875, no PGC-1a, 30 μM

T1 sequence (P04386 1-147): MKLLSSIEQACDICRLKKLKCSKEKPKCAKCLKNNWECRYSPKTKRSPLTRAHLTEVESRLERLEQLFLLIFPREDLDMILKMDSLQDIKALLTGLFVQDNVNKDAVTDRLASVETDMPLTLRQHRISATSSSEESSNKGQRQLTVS
T6 sequence (Q92731 whole entry): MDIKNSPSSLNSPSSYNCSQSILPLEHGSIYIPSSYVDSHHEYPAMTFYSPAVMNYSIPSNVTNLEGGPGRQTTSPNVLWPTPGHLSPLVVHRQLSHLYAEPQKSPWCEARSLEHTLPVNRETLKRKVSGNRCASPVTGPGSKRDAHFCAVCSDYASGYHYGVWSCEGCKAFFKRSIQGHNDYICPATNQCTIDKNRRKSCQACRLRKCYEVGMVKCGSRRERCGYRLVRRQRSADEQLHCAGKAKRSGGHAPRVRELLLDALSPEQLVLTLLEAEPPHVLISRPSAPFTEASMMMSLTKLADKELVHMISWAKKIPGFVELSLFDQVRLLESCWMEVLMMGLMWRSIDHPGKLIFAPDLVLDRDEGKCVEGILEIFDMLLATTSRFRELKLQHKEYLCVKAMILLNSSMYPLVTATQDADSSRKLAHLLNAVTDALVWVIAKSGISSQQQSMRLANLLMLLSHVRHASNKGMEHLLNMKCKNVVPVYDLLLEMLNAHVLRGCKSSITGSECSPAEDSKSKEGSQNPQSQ

## O=C(NN=Cc1ccc(C(F)(F)F)cc1)c1ccc(O)cc1 [DY168, 4-Hydroxy-benzoic acid (4-trifluoromethyl-benzylidene)-hydrazide]
other
  melting point: 260.5 °C

## Cc1[nH]c(C=NNC(=O)c2ccc(O)cc2)c(C)c1Br [DY172, 4-Hydroxy-benzoic acid (4-bromo-3,5-dimethyl-1H-pyrrol-2-ylmethylene)-hydrazide]
other
  melting point: 235.4 °C

## O=C(NN=Cc1ccc(C(F)(F)F)c([N+](=O)[O-])c1)c1ccc(O)cc1 [DY170, 4-Hydroxy-benzoic acid (3-nitro-4-trifluoromethyl-benzylidene)-hydrazide]
other
  melting point: 279.6 °C

## CCc1ccc(C=NNC(=O)c2ccc(O)cc2)s1 [DY164, 4-Hydroxy-benzoic acid (5-ethyl-thiophen-2-ylmethylene)-hydrazide]
[1]; reporter 0.42:vector 0.00875, no PGC-1a, 30 μM
  Fold activation, HRHN-GAL: 1.46 fold
[1]; reporter 0.42:vector 0.00875:PGC-1a 0.035, 30 μM
  Fold activation, HRHN-GAL + PGC-1a: 1.62 fold
[2]; [5]
  Fold activation, GAL-hERRa + PGC-1a: 2.75 fold
[2]; [6]
  Fold activation, GAL-hERRa: 1.74 fold
[2]; in the presence of PGC-1a
  Activation of ERRα: can activate
[3]; [5]
  Fold activation, GAL-L-hERRb + PGC-1a: 2.34 fold
[3]; [6]
  Fold activation, GAL-L-hERRb: 1.89 fold
[3]; in the presence of PGC-1a
  Activation of ERRβ: can activate
[4]; [5]
  Fold activation, GAL-mERRg + PGC-1a: 2.45 fold
[4]; [6]
  Fold activation, GAL-mERRg: 2.10 fold
[4]; in the presence of PGC-1a
  Activation of ERRγ: can activate
Human ERα; Table 7, CV-1, drug conc 30 μM
  Fold Activation, ERE-TK-luc, hERa: 1.30 fold
Human ERα; specificity for ERRs
  Activation of ERa: do not activate
Human ERβ; Table 7, CV-1, drug conc 30 μM
  Fold Activation, ERE-TK-luc, hERb: 1.74 fold
Human ERβ; specificity for ERRs
  Activation of ERb: do not activate
other
  melting point: 194.5 °C

## CCc1ccc(C=NNC(=O)c2ccc(O)cc2)o1 [DY175, 4-Hydroxy-benzoic acid (5-ethyl-furan-2-ylmethylene)-hydrazide]
other
  melting point: 60.5 °C

## Oc1nc(Cl)nc(NN=Cc2cc(C(F)(F)F)cc(C(F)(F)F)c2)n1 [DY176, 4-[N′-(3,5-Bis-trifluoromethyl-benzylidene)-hydrazino]-6-chloro-[1,3,5]triazin-2-ol]
other
  melting point: 258.3 °C

## COc1cc(/C=C(\C#N)C(=O)Nc2nnc(C(F)(F)F)s2)ccc1OCc1ccc(C(F)(F)F)cc1C(F)(F)F [XCT790]
ERRγ
  Activity on ERRγ: no activity

## Cc1cc(C=NNC(=O)c2ccc(O)cc2)oc1C [DY173, 4-Hydroxy-benzoic acid (4,5-dimethyl-furan-2-ylmethylene)-hydrazide]
other
  melting point: 251.4 °C

## Cc1ccc(C=NNC(=O)c2ccc(O)cc2)s1 [DY166, 4-Hydroxy-benzoic acid (5-methyl-thiophen-2-ylmethylene)-hydrazide]
other
  melting point: 215.7 °C

## Cc1cc(C)c(C=NNC(=O)c2ccc(O)cc2)[nH]1 [DY171, 4-Hydroxy-benzoic acid (3,5-dimethyl-1H-pyrrol-2-ylmethylene)-hydrazide]
other
  melting point: 261.2 °C

## O=C(NN=Cc1cccc(C(F)(F)F)c1Cl)c1ccc(O)cc1 [DY165, 4-Hydroxy-benzoic acid (2-chloro-3-trifluoromethyl-benzylidene)-hydrazide]
other
  melting point: 261.5 °C
